Assay results: patent publication US4921866A, “1,3-dioxanes” (Imperial Chemical Industries plc, priority 1987, dated 1990)
Entries after “also recorded” stand apart in the source; their conditions may differ.

Legend:
[1] = target: T1, TXA2 receptor (Rattus norvegicus, UniProt P34978); assay: test (a): rat aortic strip model, U46619 as agonist; type: cell-based; details: read-out: pA2 (converted)
T1 construct: The rat aortic strip model; from tissue; host or cells: rat aortic strip
T1 sequence (P34978 1-341): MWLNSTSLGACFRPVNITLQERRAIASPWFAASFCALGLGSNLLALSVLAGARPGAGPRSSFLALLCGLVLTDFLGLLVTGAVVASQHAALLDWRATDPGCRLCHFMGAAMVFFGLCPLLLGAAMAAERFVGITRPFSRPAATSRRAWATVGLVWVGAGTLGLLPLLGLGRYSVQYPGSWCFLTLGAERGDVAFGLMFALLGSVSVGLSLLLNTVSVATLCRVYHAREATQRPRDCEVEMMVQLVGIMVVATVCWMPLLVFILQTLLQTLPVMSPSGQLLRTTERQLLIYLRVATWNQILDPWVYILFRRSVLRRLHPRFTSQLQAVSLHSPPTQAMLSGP
Text: (a) The rat aortic strip model (based on that devised by Piper and Vane (Nature, 1969, 223, 29-35) in the rabbit) using as agonist the TXA2 mimetic agent known as U46619 (described by R. L. Jones et alia in "Chemistry, Biochemistry and Pharmacological Activity of Prostanoids" edited by S. M. Roberts and F. Scheinmann, at page 211; Pergamon Press, 1979);

[2] = target: T2, TXA2 receptor (Homo sapiens, UniProt P21731); assay: test (b): blood platelet aggregation test, U46619 stimulated, human platelet-rich plasma; type: cell-based
T2 construct: aggregating human, citrated, platelet-rich plasma; endogenous in cells; host or cells: human platelets in citrated platelet-rich plasma
T2 sequence (P21731 1-343): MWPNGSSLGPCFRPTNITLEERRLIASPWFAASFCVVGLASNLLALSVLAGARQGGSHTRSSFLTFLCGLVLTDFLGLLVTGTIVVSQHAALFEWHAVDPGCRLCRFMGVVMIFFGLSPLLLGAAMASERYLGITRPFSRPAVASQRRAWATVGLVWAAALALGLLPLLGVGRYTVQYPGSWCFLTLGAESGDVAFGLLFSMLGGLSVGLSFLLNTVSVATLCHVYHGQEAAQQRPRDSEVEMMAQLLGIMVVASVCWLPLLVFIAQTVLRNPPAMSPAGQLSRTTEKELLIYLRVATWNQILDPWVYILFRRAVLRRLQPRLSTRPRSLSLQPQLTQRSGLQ
Text: (b) a blood platelet aggregation test based on that described by Born (Nature, 1962, 194, 927-929) and involving:
(i) aggregating human, citrated, platelet-rich plasma by addition of the TXA2 mimetic agent U46619 so that a dose-response curve is generated;
(ii) generating a dose-response curve for U46619 stimulated platelet aggregation in the presence of increasing amounts of test compound (generally in the range 10^-5 M to 10^-10 M); and
(iii) calculating a KB value indicating potency of TXA2 antagonism for the test compound, average over several concentrations, from the calculated 50% response value for U46619 aggregation in the presence and absence of test compound; or […]

[3] = target: T3, TXA2 synthase (Homo sapiens, UniProt P24557); assay: test (e): in vitro TXA2 synthase inhibition, human platelet microsomal TXA2 synthase preparation; type: biochemical
T3 construct: using a human platelet microsomal TXA2 synthase preparation; from tissue; host or cells: human platelet microsomes
T3 sequence (P24557 1-533): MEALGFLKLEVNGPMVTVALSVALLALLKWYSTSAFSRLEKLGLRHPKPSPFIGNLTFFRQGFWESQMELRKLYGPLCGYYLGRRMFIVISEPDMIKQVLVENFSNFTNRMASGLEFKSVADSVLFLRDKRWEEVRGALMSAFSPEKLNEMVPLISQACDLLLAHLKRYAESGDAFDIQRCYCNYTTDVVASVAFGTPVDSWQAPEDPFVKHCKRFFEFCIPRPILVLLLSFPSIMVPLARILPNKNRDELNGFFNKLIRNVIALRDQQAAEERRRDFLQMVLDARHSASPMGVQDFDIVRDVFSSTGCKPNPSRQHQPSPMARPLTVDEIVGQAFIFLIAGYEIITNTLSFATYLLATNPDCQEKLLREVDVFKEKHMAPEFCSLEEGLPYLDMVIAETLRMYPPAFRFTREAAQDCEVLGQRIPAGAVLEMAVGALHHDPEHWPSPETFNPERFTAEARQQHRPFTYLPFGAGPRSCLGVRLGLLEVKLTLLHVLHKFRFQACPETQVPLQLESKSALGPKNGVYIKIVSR

[4] = tested on: TXA2 synthase; assay: test (f): TXB2 production in blood samples from dosed laboratory animals; type: in vivo, rat; details: 3 hours following an oral dose of 100 mg/kg to rats
Protocol: (§1) The samples treated with anti-coagulant are first incubated at 37° C. with collegen (at about 100 micro M), then mixed with the cyclooxygenase inhibitor indomethancin (at about […]), centrifuged and the level of the TXA2 metabolite TXB2 determined by a standard radioimmunoassay technique. By comparison of the amount of TXB2 present in the plasma from animals dosed with test compound with that in the plasma of a control group dosed with placebo, the TXA2 synthase inhibitory properties may be assessed.

[5] = observation of signs of toxicity in rats in test (f); type: in vivo, rat; details: oral dose of 100 mg/kg to rats
[6] = TXA2 antagonist and/or TXA2 synthase inhibitory properties (general statement, standard tests); details: qualitative statement
Protocol: as §1

O=C(O)CC/C=C\C[C@@H]1CO[C@H](c2cccnc2)O[C@@H]1c1ccccc1O (relative stereo) [Example 1, 4(Z)-6-([2,4,5-cis]-4-o-hydroxyphenyl-2-[3-pyridyl]-1,3-dioxan-5-yl)hexenoic acid]
Kb [1]: 79.4 nM
Kb [2]: 17 nM
IC50 [3]: 3140 nM
inhibition of TXB2 production [4]: essentially complete inhibition of TXB2 production
observable signs of toxicity to the test animals [5]: without any observable signs of toxicity
TXA2 antagonist and/or TXA2 synthase inhibitory properties [6]: combined antagonist and TXA2 synthase inhibitory properties; also recorded: both TXA2 antagonist and TXA2 synthase inhibitory properties

O=C(O)CCC/C=C\C[C@@H]1CO[C@H](Cc2cccnc2)O[C@@H]1c1ccccc1O (relative stereo) [Example 2, 5(Z)-7-([2,4,5-cis]-4-o-hydroxyphenyl-2-[3-pyridylmethyl]-1,3-dioxan-5-yl)heptenoic acid]
TXA2 antagonist and/or TXA2 synthase inhibitory properties [6]: combined antagonist and TXA2 synthase inhibitory properties

O=C(O)CC/C=C\C[C@@H]1CO[C@H](c2ccccn2)O[C@@H]1c1ccccc1O (relative stereo) [Example 4, 4(Z)-6-([2,4,5-cis]-4-o-hydroxyphenyl-2-[2-pyridyl]-1,3-dioxan-5-yl)hexenoic acid]
TXA2 antagonist and/or TXA2 synthase inhibitory properties [6]: TXA2 antagonist properties

O=C(O)CCCC/C=C\C[C@@H]1CO[C@H](c2ccncc2)O[C@@H]1c1ccccc1O (relative stereo) [Example 9, 6(Z)-8-([2,4,5-cis]-4-o-hydroxyphenyl-2-[4-pyridyl]-1,3-dioxan-5-yl)octenoic acid]
TXA2 antagonist and/or TXA2 synthase inhibitory properties [6]: predominantly TXA2 synthase inhibitory properties

O=C(O)CC/C=C\C[C@@H]1CO[C@H](Cc2ccccn2)O[C@@H]1c1ccccc1O (relative stereo) [Example 11, 4(Z)-6-([2,4,5-cis]-4-o-hydroxyphenyl-2-[2-pyridylmethyl]-1,3-dioxan-5-yl)hexenoic acid]
TXA2 antagonist and/or TXA2 synthase inhibitory properties [6]: TXA2 antagonist properties

O=C(O)CC/C=C\C[C@@H]1CO[C@H](Cc2cccnc2)O[C@@H]1c1ccccc1O (relative stereo) [Example 12, 4(Z)-6-([2,4,5-cis]-4-o-hydroxyphenyl-2-[3-pyridylmethyl]-1,3-dioxan-5-yl)hexenoic acid]
TXA2 antagonist and/or TXA2 synthase inhibitory properties [6]: combined antagonist and TXA2 synthase inhibitory properties

O=C(O)CCC/C=C\C[C@@H]1CO[C@H](Cc2cccnc2)O[C@@H]1c1ccccc1 (relative stereo) [Example 16, 5(Z)-7-(4-phenyl-2-[3-pyridylmethyl]-1,3-dioxan-5-yl)heptenoic acid]
TXA2 antagonist and/or TXA2 synthase inhibitory properties [6]: predominantly TXA2 synthase inhibitory properties

CC(C)(c1cccnc1)[C@H]1OC[C@@H](C/C=C\CCC(=O)O)[C@@H](c2ccccc2O)O1 (relative stereo) [Example 17, 4(Z)-6-([2,4,5-cis]-4-o-hydroxyphenyl-2-[1-(3-pyridyl)-1-methylethyl]-1,3-dioxan-5-yl)hexenoic acid]
TXA2 antagonist and/or TXA2 synthase inhibitory properties [6]: combined antagonist and TXA2 synthase inhibitory properties

CC(C)(Cc1cccnc1)[C@H]1OC[C@@H](C/C=C\CCC(=O)O)[C@@H](c2ccccc2O)O1 (relative stereo) [Example 18, 4(Z)-6-([2,4,5-cis]-4-o-hydroxyphenyl-2-[2-(3-pyridyl)-1,1-dimethylethyl]-1,3-dioxan-5-yl)hexenoic acid]
TXA2 antagonist and/or TXA2 synthase inhibitory properties [6]: combined antagonist and TXA2 synthase inhibitory properties

CC(C)(c1cccnc1)[C@H]1OC[C@@H](C/C=C\CCCC(=O)O)[C@@H](c2ccccc2O)O1 (relative stereo) [Example 19, 5(Z)-7-([2,4,5-cis]-4-o-hydroxyphenyl-2[1-(3-pyridyl)-1-methylethyl]-1,3-dioxan-5-yl)heptenoic acid]
TXA2 antagonist and/or TXA2 synthase inhibitory properties [6]: combined antagonist and TXA2 synthase inhibitory properties

CC(C)(Oc1cccnc1)[C@H]1OC[C@@H](C/C=C\CCC(=O)O)[C@@H](c2ccccc2O)O1 (relative stereo) [Example 23, 4(Z)-6-([2,4,5-cis]-4-o-hydroxyphenyl-2-[1-(3-pyridyloxy)-1-methylethyl]-1,3-dioxan-5-yl)hexenoic acid]
TXA2 antagonist and/or TXA2 synthase inhibitory properties [6]: combined antagonist and TXA2 synthase inhibitory properties
